# Target: C5a receptor (Homo sapiens (Human), UniProt P21730)
# Assay: Calcium mobilization assay (C5a-induced, U937 cells)
# Type: cell-based
# Settings: inhibition of C5a-induced calcium mobilization
# Procedure: U937 cells (ATCC® CRL-1593.2) were cultivated in RPMI1640 medium supplemented with 10% fetal bovine serum in a standard cell culture incubator. The day before conducting the assay, Dibutyryl-cAMP (0.5 mM working concentration) was added to cell cultures. Next day, cells were spun and resuspended in RPMI 1640 to a concentration of 40,000 cells per 50 μl. 40,000 cells were plated in one well in a 96 well poly-D-lysine coated plate for two hours to allow cells to adhere. After cell adherence, cytoplasmic calcium^++ indicator (FLIPR Calcium 6 Assay Kit, Molecular Devices) was added to each well and incubated for 75 minutes at 37° C. Test compounds were diluted using a robotic liquid handler. The tips of the robotic liquid handler were changed after each mixing step. Test compounds were added into cell cultures at various concentrations (0.01 nM to 100 μM) for 15 minutes at 37° C. The cell culture plates were then incubated at room temperature for 30 minutes before being placed into Flexstation-3 plate reader (Molecular Devices). The Flexstation-3 was programmed to add recombinant C5a protein at various concentrations (1 nM to 10 nM) to cell culture plates and to monitor the change of fluorescence intensity, which correlates with cytoplasmic calcium concentration. The assay was also performed with the presence of human or animal blood components, such as human or bovine plasma or serum.
# The half maximal inhibitory concentrations, i.e. IC50, were determined in biological assays, such as calcium mobilization assay. Using the calcium mobilization assay the following IC50 values were determined by the best dose-response curve fitting method. The curves were plotted using percentage inhibition of C5a-induced calcium mobilization versus various concentrations of compounds.
# C5a receptor, sequence (P21730 whole entry): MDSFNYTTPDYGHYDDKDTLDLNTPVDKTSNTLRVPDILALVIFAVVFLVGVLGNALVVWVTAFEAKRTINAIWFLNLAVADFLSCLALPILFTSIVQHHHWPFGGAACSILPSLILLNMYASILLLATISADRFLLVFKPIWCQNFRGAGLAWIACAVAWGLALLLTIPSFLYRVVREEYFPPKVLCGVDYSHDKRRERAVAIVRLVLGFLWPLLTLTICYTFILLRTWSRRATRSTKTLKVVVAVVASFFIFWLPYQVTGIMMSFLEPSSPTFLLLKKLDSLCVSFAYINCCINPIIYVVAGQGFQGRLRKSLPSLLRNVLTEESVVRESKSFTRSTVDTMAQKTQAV
row,SMILES,IC50 [µM]
1,"Cc1ccc(NC(=O)[C@H]2Cc3ccccc3N(C(=O)c3c(C)cccc3F)[C@H]2c2ccc(NC3CCCC3)cc2)cc1C(F)(F)F [INF004, (2R,3S)-2-(4-(cyclopentylamino)phenyl)-1-(2-fluoro-6-methylbenzoyl)-N-(4-methyl-3-(trifluoromethyl)phenyl)-1,2,3,4-tetrahydroquinoline-3-carboxamide]",< 0.01
2,"Cc1cccc(F)c1C(=O)N1c2ccccc2C[C@H](C(=O)Nc2ccc(CO)c(C(F)(F)F)c2)[C@@H]1c1ccc(NC2CCCC2)cc1 [INF015, (2R,3S)-2-(4-(cyclopentylamino)phenyl)-1-(2-fluoro-6-methylbenzoyl)-N-(4-(hydroxymethyl)-3-(trifluoromethyl)phenyl)-1,2,3,4-tetrahydroquinoline-3-carboxamide]",< 0.01
3,"Cc1ccc(NC(=O)[C@H]2Cc3cc(F)ccc3N(C(=O)c3c(C)cccc3F)[C@H]2c2ccc(NC3CCCC3)cc2)cc1C(F)(F)F [INF022, (2R,3S)-2-(4-(cyclopentylamino)phenyl)-6-fluoro-1-(2-fluoro-6-methylbenzoyl)-N-(4-methyl-3-(trifluoromethyl)phenyl)-1,2,3,4-tetrahydroquinoline-3-carboxamide]",< 0.01
4,"Cc1ccc2c(c1)C[C@H](C(=O)Nc1ccc(C)c(C(F)(F)F)c1)[C@H](c1ccc(NC3CCCC3)cc1)N2C(=O)c1c(C)cccc1F [INF023, (2R,3S)-2-(4-(cyclopentylamino)phenyl)-1-(2-fluoro-6-methylbenzoyl)-6-methyl-N-(4-methyl-3-(trifluoromethyl)phenyl)-1,2,3,4-tetrahydroquinoline-3-carboxamide]",< 0.01
5,"COc1ccc2c(c1)C[C@H](C(=O)Nc1ccc(C)c(C(F)(F)F)c1)[C@H](c1ccc(NC3CCCC3)cc1)N2C(=O)c1c(C)cccc1F [INF024, (2R,3S)-2-(4-(cyclopentylamino)phenyl)-1-(2-fluoro-6-methylbenzoyl)-6-methoxy-N-(4-methyl-3-(trifluoromethyl)phenyl)-1,2,3,4-tetrahydroquinoline-3-carboxamide]",< 0.01
6,"Cc1cccc(F)c1C(=O)N1c2ccccc2C[C@H](C(=O)Nc2ccc(O)c(C(F)(F)F)c2)[C@@H]1c1ccc(NC2CCCC2)cc1 [INF033, (2R,3S)-2-(4-(cyclopentylamino)phenyl)-1-(2-fluoro-6-methylbenzoyl)-N-(4-hydroxy-3-(trifluoromethyl)phenyl)-1,2,3,4-tetrahydroquinoline-3-carboxamide]",< 0.01
7,"Cc1cccc(F)c1C(=O)N1c2ccc(F)cc2C[C@H](C(=O)Nc2ccc(CO)c(C(F)(F)F)c2)[C@@H]1c1ccc(NC2CCCC2)cc1 [INF039, (2R,3S)-2-(4-(cyclopentylamino)phenyl)-6-fluoro-1-(2-fluoro-6-methylbenzoyl)-N-(4-(hydroxymethyl)-3-(trifluoromethyl)phenyl)-1,2,3,4-tetrahydroquinoline-3-carboxamide]",< 0.01

# Next, values leading:
row,IC50 [µM],SMILES
1,< 0.01,"Cc1cccc(F)c1C(=O)N1c2cccc(F)c2C[C@H](C(=O)Nc2ccc(CO)c(C(F)(F)F)c2)[C@@H]1c1ccc(NC2CCCC2)cc1 [INF045, (2R,3S)-2-(4-(cyclopentylamino)phenyl)-5-fluoro-1-(2-fluoro-6-methylbenzoyl)-N-(4-(hydroxymethyl)-3-(trifluoromethyl)phenyl)-1,2,3,4-tetrahydroquinoline-3-carboxamide]"
2,< 0.01,"Cc1ccc(NC(=O)[C@H]2C[C@@H](C(F)(F)F)CN(C(=O)c3c(F)cccc3F)[C@H]2c2ccc(NC3CCCC3)cc2)cc1C(F)(F)F [INF052, (2R,3S,5R)-2-(4-(cyclopentylamino)phenyl)-1-(2,6-difluorobenzoyl)-N-(4-methyl-3-(trifluoromethyl)phenyl)-5-(trifluoromethyl)piperidine-3-carboxamide]"
3,< 0.01,"[2H]C1(Nc2ccc([C@H]3[C@@H](C(=O)Nc4ccc(C)c(C(F)(F)F)c4)C[C@@H](C(F)(F)F)CN3C(=O)c3c(F)cccc3F)cc2)CCCC1 [INF067, (2R,3S,5R)-2-(4-((cyclopentyl-1-d)amino)phenyl)-1-(2,6-difluorobenzoyl)-N-(4-methyl-3-(trifluoromethyl)phenyl)-5-(trifluoromethyl)piperidine-3-carboxamide]"
4,< 0.01,"O=C(Nc1ccc(O)c(C(F)(F)F)c1)[C@H]1C[C@@H](C(F)(F)F)CN(C(=O)c2c(F)cccc2F)[C@H]1c1ccc(NC2CCCC2)cc1 [INF068, (2R,3S,5R)-2-(4-(cyclopentylamino)phenyl)-1-(2,6-difluorobenzoyl)-N-(4-hydroxy-3-(trifluoromethyl)phenyl)-5-(trifluoromethyl)piperidine-3-carboxamide]"
5,< 0.01,"Cc1ccc(NC(=O)[C@H]2C[C@@H](C(F)(F)F)CN(C(=O)c3c(F)cccc3F)[C@H]2c2ccc(NC3CCCC3)cc2)cc1Cl [INF071, (2R,3S,5R)—N-(3-chloro-4-methylphenyl)-2-(4-(cyclopentylamino)phenyl)-1-(2,6-difluorobenzoyl)-5-(trifluoromethyl)piperidine-3-carboxamide]"

# — US11149009B2, “Fused piperidinyl bicyclic and related compounds as modulators of C5A receptor” (InflaRx GmbH, priority 2019, dated 2021)
